Data set [1] addresses Protein farnesyltransferase (Homo sapiens) (UniProt P49354+P49356). The experiment in a line: Activity as substrate for recombinant mammalian Farnesyltransferase expressed in baculovirus; activity expressed as Vmax relative to the Vmax of E,E-FPP.
Data set [2] has as its system CC(C)=CCC/C(C)=C\CC/C(C)=C/COP(=O)(O)OP(=O)(O)O. The experiment in a line: (§1) Kinetic constant for recombinant mammalian Farnesyltransferase expressed in baculovirus by fluorescence assay.
The test system of data set [3] is CC(C)=CCC/C(C)=C/CC/C(C)=C/CC/C(C)=C\COP(=O)(O)OP(=O)(O)O. Described as §1.
The test system of data set [4] is CC(C)=CCC/C(C)=C/CC/C(C)=C\COP(=O)(O)OP(=O)(O)O. The description is as §1.
The subject of data set [5] is CC(C)=CCC/C(C)=C/CC/C(C)=C\CC/C(C)=C/COP(=O)(O)OP(=O)(O)O. The data set is described as §1.

Turning to `CC(C)=CCC/C(C)=C/CC/C(C)=C/CC/C(C)=C\COP(=O)(O)OP(=O)(O)O`, the Krel in data set [1] is 0.67. Same read-out and setting: next, `CC(C)=CCC/C(C)=C/CC/C(C)=C\CC/C(C)=C/COP(=O)(O)OP(=O)(O)O`: 0.4; `CC(C)=CCC/C(C)=C/CC/C(C)=C\COP(=O)(O)OP(=O)(O)O`: 0.47; `CC(C)=CCC/C(C)=C\CC/C(C)=C/COP(=O)(O)OP(=O)(O)O`: 0.41. For the molecule “Protein farnesyltransferase (Homo sapiens) (from UniProt P49354+P49356)”, the Km in data set [2] is 0.136 µM; in data set [3], 0.021 µM; in data set [4], 0.225 µM; in data set [5] it was 0.481 µM.

The term Km denotes the concentration of substrate that gives half-maximal velocity.
